Experimental data: ChEMBL document CHEMBL1201862, “PubChem BioAssay data set” (2004)
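Method: 48-hour compound exposure of cells in 96-well plates, five concentrations, linear interpolation of endpoints. Here, GI50 denotes the concentration required for 50% inhibition of growth.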 Active and inactive are the calls of the source. Cut-off read from the data, not from the text of the source: active = GI50 up to about 1.1 µM and inactive = higher.

Tests used:
Assay in all cases: NCI tumour cell line growth inhibition, 48 h
A498 = test system: A498
A549 = test system: A549
ACHN = test system: ACHN
BT-549 = test system: BT-549
CAKI-1 = test system: CAKI-1
CCRF-CEM = test system: CCRF-CEM
COLO 205 = test system: COLO 205
DU-145 = test system: DU-145
EKVX = test system: EKVX
HCC 2998 = test system: HCC 2998
HCT-15 = test system: HCT-15
HOP-62 = test system: HOP-62
HOP-92 = test system: HOP-92
HT-29 = test system: HT-29
IGROV-1 = test system: IGROV-1
K562 = test system: K562
KM12 = test system: KM12
LOX IMVI = test system: LOX IMVI
M14 = test system: M14
MCF7 = test system: MCF7
MDA-MB-231 = test system: MDA-MB-231
MDA-MB-435 = test system: MDA-MB-435
MDA-N = test system: MDA-N
MOLT-4 = test system: MOLT-4
Malme-3M = test system: Malme-3M
NCI-H23 = test system: NCI-H23
NCI-H460 = test system: NCI-H460
NCI-H522 = test system: NCI-H522
NCI/ADR-RES = test system: NCI/ADR-RES
OVCAR-3 = test system: OVCAR-3
OVCAR-4 = test system: OVCAR-4
OVCAR-5 = test system: OVCAR-5
OVCAR-8 = test system: OVCAR-8
PC-3 = test system: PC-3
RPMI-8226 = test system: RPMI-8226
SF-268 = test system: SF-268
SF-539 = test system: SF-539
SK-MEL-28 = test system: SK-MEL-28
SK-MEL-2 = test system: SK-MEL-2
SK-MEL-5 = test system: SK-MEL-5
SN12C = test system: SN12C
SNB-19 = test system: SNB-19
SR = test system: SR
SW-620 = test system: SW-620
TK-10 = test system: TK-10
U-251 = test system: U-251
UACC-257 = test system: UACC-257
UACC-62 = test system: UACC-62
UO-31 = test system: UO-31
786-0 = test system: 786-0
HCT-116 = test system: HCT-116
HL-60 = test system: HL-60
Hs-578T = test system: Hs-578T
NCI-H226 = test system: NCI-H226
RXF 393 = test system: RXF 393
SF-295 = test system: SF-295
SK-OV-3 = test system: SK-OV-3
SNB-75 = test system: SNB-75
T47D = test system: T47D

## O[C@@]12Cc3c([nH]c4ccccc34)[C@@H]3Oc4cccc5c4[C@@]31CCN(CC1CC1)[C@@H]2C5
A498
  GI50: 25.2 µM (inactive)
A549
  GI50: 27 µM (inactive)
ACHN
  GI50: 20.4 µM (inactive)
BT-549
  GI50: 19.8 µM (inactive)
CAKI-1
  GI50: 19.2 µM (inactive)
CCRF-CEM
  GI50: 11.3 µM (inactive)
COLO 205
  GI50: 31.4 µM (inactive)
DU-145
  GI50: 27 µM (inactive)
EKVX
  GI50: 24.5 µM (inactive)
HCC 2998
  GI50: 17.7 µM (inactive)
HCT-15
  GI50: 18.1 µM
HOP-62
  GI50: 31.8 µM (inactive)
HOP-92
  GI50: 12.4 µM (inactive)
HT-29
  GI50: 15.9 µM (inactive)
IGROV-1
  GI50: 24.9 µM (inactive)
K562
  GI50: 22.6 µM (inactive)
KM12
  GI50: 39.7 µM (inactive)
LOX IMVI
  GI50: 18.9 µM (inactive)
M14
  GI50: 23.7 µM (inactive)
MCF7
  GI50: 17.5 µM (inactive)
MDA-MB-231
  GI50: 25.7 µM (inactive)
MDA-MB-435
  GI50: 15.7 µM (inactive)
MDA-N
  GI50: 19.6 µM (inactive)
MOLT-4
  GI50: 19.6 µM (inactive)
Malme-3M
  GI50: 19.5 µM (inactive)
NCI-H23
  GI50: 30.7 µM (inactive)
NCI-H460
  GI50: 46.1 µM (inactive)
NCI-H522
  GI50: 22.8 µM (inactive)
NCI/ADR-RES
  GI50: 33.4 µM (inactive)
OVCAR-3
  GI50: 22.3 µM (inactive)
OVCAR-4
  GI50: 22.5 µM (inactive)
OVCAR-5
  GI50: 29 µM (inactive)
OVCAR-8
  GI50: 15.1 µM (inactive)
PC-3
  GI50: 17 µM (inactive)
RPMI-8226
  GI50: 19.4 µM (inactive)
SF-268
  GI50: 19.5 µM (inactive)
SF-539
  GI50: 20.9 µM (inactive)
SK-MEL-28
  GI50: 12.7 µM (inactive)
SK-MEL-2
  GI50: 26.5 µM (inactive)
SK-MEL-5
  GI50: 24.3 µM (inactive)
SN12C
  GI50: 21.7 µM (inactive)
SNB-19
  GI50: 33 µM (inactive)
SR
  GI50: 34 µM (inactive)
SW-620
  GI50: 11.4 µM (inactive)
TK-10
  GI50: 19.2 µM (inactive)
U-251
  GI50: 39.7 µM (inactive)
UACC-257
  GI50: 24.9 µM (inactive)
UACC-62
  GI50: 17.2 µM (inactive)
UO-31
  GI50: 18.9 µM (inactive)

## CCCCCCC(=O)c1ccc2ccccc2c1O
786-0
  GI50: 38.8 µM (inactive)
A498
  GI50: 0.318 µM (active)
ACHN
  GI50: 54 µM (inactive)
BT-549
  GI50: 76 µM (inactive)
CAKI-1
  GI50: 43.2 µM (inactive)
CCRF-CEM
  GI50: 33.1 µM (inactive)
COLO 205
  GI50: 66.1 µM (inactive)
DU-145
  GI50: 26.6 µM (inactive)
EKVX
  GI50: 25.4 µM (inactive)
HCC 2998
  GI50: > 100 µM (inactive)
HCT-116
  GI50: 53 µM (inactive)
HCT-15
  GI50: 32.8 µM
HL-60
  GI50: 36.4 µM (inactive)
HOP-62
  GI50: > 100 µM (inactive)
HOP-92
  GI50: 93.3 µM (inactive)
HT-29
  GI50: 25.1 µM (inactive)
Hs-578T
  GI50: 56 µM (inactive)
IGROV-1
  GI50: 27.4 µM (inactive)
K562
  GI50: > 100 µM (inactive)
KM12
  GI50: 31 µM (inactive)
LOX IMVI
  GI50: 42.1 µM (inactive)
M14
  GI50: 58.3 µM (inactive)
MCF7
  GI50: 33.4 µM (inactive)
MDA-MB-231
  GI50: 85.5 µM (inactive)
MDA-MB-435
  GI50: 69.2 µM (inactive)
MOLT-4
  GI50: 20.3 µM (inactive)
NCI-H226
  GI50: 40.1 µM (inactive)
NCI-H23
  GI50: 92.5 µM (inactive)
NCI-H460
  GI50: 52.4 µM (inactive)
NCI/ADR-RES
  GI50: 51.2 µM (inactive)
OVCAR-4
  GI50: > 100 µM (inactive)
OVCAR-8
  GI50: 41.7 µM (inactive)
PC-3
  GI50: 61 µM (inactive)
RPMI-8226
  GI50: 98.4 µM (inactive)
RXF 393
  GI50: 25.1 µM (inactive)
SF-268
  GI50: 34.2 µM (inactive)
SF-295
  GI50: 34.5 µM (inactive)
SF-539
  GI50: 52.7 µM (inactive)
SK-MEL-28
  GI50: > 100 µM (inactive)
SK-MEL-2
  GI50: 23.8 µM (inactive)
SK-MEL-5
  GI50: > 100 µM (inactive)
SK-OV-3
  GI50: 52.4 µM (inactive)
SNB-19
  GI50: > 100 µM (inactive)
SNB-75
  GI50: 43.1 µM (inactive)
SR
  GI50: 33.3 µM (inactive)
SW-620
  GI50: 64.7 µM (inactive)
T47D
  GI50: 34.8 µM (inactive)
TK-10
  GI50: > 100 µM (inactive)
U-251
  GI50: > 100 µM (inactive)
UACC-257
  GI50: 32.7 µM (inactive)
UACC-62
  GI50: 47 µM (inactive)
UO-31
  GI50: 47.6 µM (inactive)
